Source: patent publication US7893025B2, “Use of growth hormone releasing factor analogs in treating patients suffering from wasting” (Theratechnolgies Inc., priority 2003, dated 2011)

Assay: Adverse events and safety laboratory parameters; discontinuations
Type: in vivo, human
Conditions: 2 mg group, following 1 month of treatment
Experimental: The results presented herein were obtained from a multicentre, randomized, double-blind, placebo-controlled study. The compound TH9507 was administered by subcutaneous injection daily (1 or 2 mg dose) for a three-month period. Patients were of both genders, aged 50 years or older, with stable COPD as per the 1995 American Thoracic Society criteria.
Adverse events and safety laboratory parameters (haematology, biochemistry, urinalysis) were measured using standard laboratory methods.

SMILES: CC/C=C/CC(=O)N[C@@H](Cc1ccc(O)cc1)C(=O)N[C@@H](C)C(=O)N[C@@H](CC(=O)O)C(=O)N[C@@H](C)C(=O)N[C@H](C(=O)N[C@@H](Cc1ccccc1)C(=O)N[C@H](C(=O)N[C@@H](CC(N)=O)C(=O)N[C@@H](CO)C(=O)N[C@@H](Cc1ccc(O)cc1)C(=O)N[C@@H](CCCNC(=N)N)C(=O)N[C@@H](CCCCN)C(=O)N[C@H](C(=O)N[C@@H](CC(C)C)C(=O)NCC(=O)N[C@@H](CCC(N)=O)C(=O)N[C@@H](CC(C)C)C(=O)N[C@@H](CO)C(=O)N[C@@H](C)C(=O)N[C@@H](CCCNC(=N)N)C(=O)N[C@@H](CCCCN)C(=O)N[C@@H](CC(C)C)C(=O)N[C@@H](CC(C)C)C(=O)N[C@@H](CCC(N)=O)C(=O)N[C@@H](CC(=O)O)C(=O)N[C@H](C(=O)N[C@@H](CCSC)C(=O)N[C@@H](CO)C(=O)N[C@@H](CCCNC(=N)N)C(=O)N[C@@H](CCC(N)=O)C(=O)N[C@@H](CCC(N)=O)C(=O)NCC(=O)N[C@@H](CCC(=O)O)C(=O)N[C@@H](CO)C(=O)N[C@@H](CC(N)=O)C(=O)N[C@@H](CCC(N)=O)C(=O)N[C@@H](CCC(=O)O)C(=O)N[C@@H](CCCNC(=N)N)C(=O)NCC(=O)N[C@@H](C)C(=O)N[C@@H](CCCNC(=N)N)C(=O)N[C@@H](C)C(=O)N[C@@H](CCCNC(=N)N)C(=O)N[C@@H](CC(C)C)C(N)=O)[C@@H](C)CC)C(C)C)[C@@H](C)O)[C@@H](C)CC [TH9507, (hexenoyl trans-3)hGRF(1-44)NH2]
- Discontinuation possibly related to study drug: one patient in the 2 mg group who showed elevated creatine phosphokinase (CPK) and serum glutamic oxaloacetic transaminase (SGOT) values
